According to PubChem BioAssay AID248 (DTP/NCI, 2004):
Several values for one entry are separate records, joined by “and”; a condition that tells them apart may be missing. Equal entries are not always repeated. Toxic doses and inconclusive results are not listed. Rule as the data show it: active = T/C of 150% or more; inactive = T/C below 125%.

Tested on: L1210 leukemia ip in BDF1 mice, survival T/C
Assay: NCI In Vivo Anticancer Drug Screen. Data for tumor model L1210 Leukemia (intraperitoneal) in B6D2F1 (BDF1) mice
Settings: endpoint: mean survival time, higher = longer survival
Outline: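 Transplantable tumor model; survival measured in treated vs vehicle control mice. Value = treated/control.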

[1] = dose: 100.0 mg/kg/injection, schedule: Q04DX002 (ip), vehicle: saline with Tween-80
[2] = dose: 200.0 mg/kg/injection, schedule: Q04DX002 (ip), vehicle: saline with Tween-80
[3] = dose: 100.0 mg/kg/injection, schedule: Q01DX001 (ip), vehicle: saline
[4] = dose: 25.0 mg/kg/injection, schedule: Q01DX009 (ip), vehicle: saline
[5] = dose: 50.0 mg/kg/injection, schedule: Q01DX009 (ip), vehicle: saline
[6] = dose: 100.0 mg/kg/injection, schedule: Q01DX009 (ip), vehicle: saline

Measured: T/C

CC1=CCCCC1O (configuration not stated)
inactive: [1] 93 % of control | [2] 96 % of control | dose: 400.0 mg/kg/injection, schedule: Q04DX002 (ip), vehicle: saline with Tween-80 93 % of control

CC(O)(C(F)(F)F)C(C)(O)C(F)(F)F (configuration not stated)
inactive: [1] 86 % of control | [2] 91 % of control

CC(C)(C)[CH2][Sn]([Br])([Br])[CH2]C(C)(C)C
inactive: dose: 9.38 mg/kg/injection, schedule: Q01DX001 (ip), vehicle: other 98 % of control

[N-]=[N+]=NC1=C(c2ccccc2)C(=O)C(N=[N+]=[N-])=C(c2ccccc2)C1=O
inactive: [3] 88 % of control | dose: 200.0 mg/kg/injection, schedule: Q01DX001 (ip), vehicle: saline 95 % of control | dose: 400.0 mg/kg/injection, schedule: Q01DX001 (ip), vehicle: saline 90 % of control

CC(=O)C[N+]12CN3CN(CN(C3)C1)C2
inactive: [4] 96 % of control | dose: 50.0 mg/kg/injection, schedule: Q01DX005 (ip), vehicle: saline 103 % of control | [5] 111 % of control | dose: 100.0 mg/kg/injection, schedule: Q01DX005 (ip), vehicle: saline 103 % of control | [6] 109 % of control | dose: 100.0 mg/kg/injection, schedule: Q04DX002 (ip), vehicle: saline 96 % of control | dose: 200.0 mg/kg/injection, schedule: Q04DX002 (ip), vehicle: saline 107 % of control

Cc1ccc(C(=O)/C=C\c2ccccc2)cc1
inactive: dose: 100.0 mg/kg/injection, schedule: Q01DX009 (ip), vehicle: saline with Tween-80 110 % of control | dose: 100.0 mg/kg/injection, schedule: Q04DX003 (ip), vehicle: saline with Tween-80 103 % of control | dose: 200.0 mg/kg/injection, schedule: Q01DX009 (ip), vehicle: saline with Tween-80 97 % of control | dose: 200.0 mg/kg/injection, schedule: Q04DX003 (ip), vehicle: saline with Tween-80 98 % of control | dose: 400.0 mg/kg/injection, schedule: Q01DX009 (ip), vehicle: saline with Tween-80 97 % of control | dose: 400.0 mg/kg/injection, schedule: Q04DX003 (ip), vehicle: saline with Tween-80 92 % of control

O=C1CCSC(=O)N1SC(Cl)(Cl)Cl
inactive: dose: 6.0 mg/kg/injection, schedule: Q04DX003 (ip), vehicle: saline with Tween-80 88 % of control | dose: 12.0 mg/kg/injection, schedule: Q01DX009 (ip), vehicle: saline with Tween-80 94 % of control | dose: 12.0 mg/kg/injection, schedule: Q04DX003 (ip), vehicle: saline with Tween-80 101 % of control | dose: 25.0 mg/kg/injection, schedule: Q01DX009 (ip), vehicle: saline with Tween-80 92 % of control | dose: 25.0 mg/kg/injection, schedule: Q04DX003 (ip), vehicle: saline with Tween-80 97 % of control and 101 % of control | dose: 50.0 mg/kg/injection, schedule: Q01DX009 (ip), vehicle: saline with Tween-80 93 % of control and 90 % of control | dose: 100.0 mg/kg/injection, schedule: Q04DX003 (ip), vehicle: saline 98 % of control | dose: 200.0 mg/kg/injection, schedule: Q04DX003 (ip), vehicle: saline 93 % of control

CCOC(=O)Nc1cc(NC(C)CCCN(CC)CC)c2nc(-c3ccccc3)c(-c3ccccc3)nc2n1 (configuration not stated)
inactive: dose: 50.0 mg/kg/injection, schedule: Q01DX001 (ip), vehicle: saline 93 % of control | [3] 90 % of control

O=C(C[n+]1ccc2ccccc2c1)c1ccccc1
inactive: dose: 12.5 mg/kg/injection, schedule: Q01DX009 (ip), vehicle: saline 98 % of control | [4] 104 % of control | [5] 101 % of control | dose: 50.0 mg/kg/injection, schedule: Q04DX003 (ip), vehicle: saline 97 % of control

CCOC1CC2(c3ccccc3)OC(=O)OC12c1ccccc1 (configuration not stated)
inactive: dose: 25.0 mg/kg/injection, schedule: Q04DX002 (ip), vehicle: saline with Tween-80 115 % of control | dose: 50.0 mg/kg/injection, schedule: Q04DX002 (ip), vehicle: saline with Tween-80 101 % of control | [1] 115 % of control

O=C1NC(=O)C2C3C=CC(O3)C12 (configuration not stated)
inactive: [6] 106 % of control | dose: 200.0 mg/kg/injection, schedule: Q01DX009 (ip), vehicle: saline 95 % of control | dose: 400.0 mg/kg/injection, schedule: Q01DX009 (ip), vehicle: saline 97 % of control

COc1cc2c(c(Cl)c1N)-c1ccccc1C2
inactive: dose: 177.0 mg/kg/injection, schedule: Q01DX001 (ip), vehicle: carboxymethylcellulose (CMC) 104 % of control | dose: 266.0 mg/kg/injection, schedule: Q01DX001 (ip), vehicle: carboxymethylcellulose (CMC) 98 % of control

O=C(Nc1cc([N+](=O)[O-])ccc1F)N(Cc1ccccc1)c1ccccc1
inactive: dose: 100.0 mg/kg/injection, schedule: Q04DX003 (ip), vehicle: Klucel (hydroxypropylcellulose) (HPC) 97 % of control | dose: 200.0 mg/kg/injection, schedule: Q04DX003 (ip), vehicle: Klucel (hydroxypropylcellulose) (HPC) 92 % of control | dose: 400.0 mg/kg/injection, schedule: Q04DX003 (ip), vehicle: Klucel (hydroxypropylcellulose) (HPC) 87 % of control
